The source of these data is patent US4501750A, “Thiazole compounds, a process for preparing same and a pharmaceutical composition containing the thiazole compounds” (Mitsui Toatsu Kaguku Kabushiki Kaisha, priority 1981, dated 1985).

Structures are written as SMILES. Structures can show the parent of a compound that is named as a salt.

The subject of the first series is adjuvant arthritis. Briefly: Adjuvant Arthritis Test (Mycobacterium tuberculosis adjuvant). The series is classed as in vivo, SD male rats. Conditions: 5 mg per Kg subcutaneously, 9 times in total; left hind leg; * P<0.05, ** P<0.01 vs control. An excerpt: The adjuvant arthritis in rats caused by the injection of a Mycobacterium tuberculosis adjuvant is often utilized for a model test of chronic rheumatoid arthritis in human.
The mechanism of manifestation of this disease has not completely been elucidated, but it is known that the cellular immunity plays an important role. The immuno-modulating activity of the compounds of the present invention was investigated in accordance with this known adjuvant arthritis test.
8-Week-old SD male rats were used for the test. In 0.1 ml of fluid paraffin, 0.4 mg of dry-dead cells of Mycobacterium tuberculosis were suspended, and the suspension was injected under the heel skin of the right hind leg of each rat. Each of the compounds of the present invention was subcutaneously administered 9 times in total before and after the injection of the adjuvant. Each of the compounds of the present invention was dissolved or suspended in a 0.2% solution of carboxymethylcellulose in physiological saline and administered to each rat at a dose of 5 mg per Kg of the body weight. The swollen volume of the left hind leg was measured during the period of from the day of injection to the day of completion of the test, and the swelling ratio was calculated. For comparison, a similar test was conducted using Levamisole hydrochloride. F.t tests were carried out on the test results obtained.
Regarding `O=C(Nc1nc(-c2ccccc2)cs1)C(=O)Nc1nc(-c2ccccc2)cs1` [drawing 12], the “Swell suppression ratio to control group (average value from 16th to 20th days)” value is 51.0%. Same read-out and setting: under `CC(Cl)C(=O)Nc1nc(-c2ccccc2)cs1` (stereo not drawn) [drawing 16] stands 12.1%; under `O=C(Nc1nc(-c2ccc(Cl)cc2)cs1)C(=O)Nc1nc(-c2ccc(Cl)cc2)cs1` [drawing 13], 51.9%. Same read-out and setting: with `CC(Br)C(=O)Nc1nc(-c2ccccc2)cs1` (stereo not drawn) [drawing 17] the figure was 20.0%; with `CSc1sc(NC(=O)C(=O)Nc2nc(-c3ccccc3)c(SC)s2)nc1-c1ccccc1` [drawing 15], 35.5%; with `c1ccc([C@H]2CN3CCSC3=N2)cc1` [Levamisole.HCl, Levamisole hydrochloride, reference compound], 19.8%. Still for that read-out and setting: under `COc1ccc(-c2csc(NC(=O)C(=O)Nc3nc(-c4ccc(OC)cc4)cs3)n2)cc1` [drawing 14] stands 14.1%.

Test system in a further series: not listed separately
Nature of the series: Acute Toxicity Test through Oral Administration. The series is classed as in vivo. Conditions: ddY male mice, 7 days observation. An excerpt: To each of a group of five ddY male mice, was orally administered a medicine dissolved or suspended in physiological saline.
With `c1ccc([C@H]2CN3CCSC3=N2)cc1` [Levamisole.HCl, Levamisole hydrochloride, reference compound], the “estimated LD50” value is 200 to 300 mg/kg.

The next series deals with delayed hypersensitivity induced by picryl chloride. Briefly: Reinforcement Test of Delayed Hypersensitivity (picryl chloride, pinna thickness). The series is classed as in vivo, ICR male mice. Conditions: 50 mg per Kg orally, simultaneously with sensitization; 24 hours after challenging; average of both pinnae of eight mice; * P<0.05, ** P<0.01 vs control. The text has this:
The delayed hypersensitivity induced on a mouse when picryl chloride(2-chloro-1,3,5-trinitrobenzene) is coated on the skin of the mouse is known as a typical cellular immunity.
The above test system was used for the reinforcement tests of the delayed hypersensitivity.
Groups of eight ICR male mice, each having a body weight of about 30 g, were used for the test.
Sensitization was effected by coating a 3% solution of picryl chloride in a 4/1 mixture of olive oil and acetone on the shaved abdomen of each of the mice.
Simultaneously with the sensitization, a solution or suspension of a compound of the present invention dissolved or suspended in a 0.2% solution of carboxymethylcellulose in a physiological saline was orally administered to the mouse at a dose of 50 mg per Kg of its body weight. To each mouse of a control group, a 0.2% carboxymethylcellulose solution was similarly administered in a physiological saline.
The delayed hypersensitivity was induced 7 days after the sensitization by pinching each of the pinnae of each mouse with a pair of forceps whose tip portions were wrapped with a felt impregnated with a 1% solution of picryl chloride in olive oil and coating the pinnae with the solution. The thickness of each pinna was measured before the challenging and 24 hours after the challenging and the ratio of increase of the thickness (average value of both of the pinnae of the eight mice) is shown in Table 1.
For comparison, a similar test was carried out using Levamisole hydrochloride.
F.t tests were carried out on the thus-obtained test results.
`O=C(Nc1nc(-c2ccc(Cl)cc2)cs1)C(=O)Nc1nc(-c2ccc(Cl)cc2)cs1` [drawing 7]: the “Ratio of Increase of Pinna Thickness” value amounted to 29.5%.

Regarding `CC(Br)C(=O)Nc1nc(-c2ccccc2)cs1` (stereo not drawn) [drawing 11], the “Ratio of Increase of Pinna Thickness” value is given as 32.9%. Same read-out and setting: under `CSc1sc(NC(=O)C(=O)Nc2nc(-c3ccccc3)c(SC)s2)nc1-c1ccccc1` [drawing 9] stands 27.3%; under `O=C(Nc1nc(-c2ccccc2)cs1)C(=O)Nc1nc(-c2ccccc2)cs1` [drawing 6], 30.3%; under `CC(Cl)C(=O)Nc1nc(-c2ccccc2)cs1` (stereo not drawn) [drawing 10], 36.1%.

Consider `COc1ccc(-c2csc(NC(=O)C(=O)Nc3nc(-c4ccc(OC)cc4)cs3)n2)cc1` [drawing 8], for which the “Ratio of Increase of Pinna Thickness” value came out at 36.5%. Still for that read-out and setting: with `c1ccc([C@H]2CN3CCSC3=N2)cc1` [Levamisole.HCl, Levamisole hydrochloride, reference compound] the figure was 31.2%.
